Columns and labels:
Experiment in all cases: KINOMEscan
Format in all cases: binding
[1] = molecular target: T1, ABL1(Q252H)-nonphosphorylated (Homo sapiens, UniProt P00519, Q252H); details: 1 uM
T1 construct: purchased Ambit KINOMEscan (DiscoverX)
Summary of the method: (§1)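 A binding-competition profile was run with every compound fixed at 1 μM; hits were kinases showing inhibited substrate binding.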

ACVRL1 = molecular target: T2, ACVRL1 (Homo sapiens, UniProt P37023); details: ACVRL1, 1 uM
T2 construct: purchased Ambit KINOMEscan (DiscoverX)
Summary of the method: as §1

AMPK-alpha1 = molecular target: T3, AMPK-alpha1 (Homo sapiens, UniProt Q13131); details: AMPK-alpha1, 1 uM
T3 construct: purchased Ambit KINOMEscan (DiscoverX)
Summary of the method: as §1

ASK1 = molecular target: T4, ASK1 (Homo sapiens, UniProt Q99683); details: ASK1, 1 uM
T4 construct: purchased Ambit KINOMEscan (DiscoverX)
Summary of the method: as §1

CAMKK2 = molecular target: T5, CAMKK2 (Homo sapiens, UniProt Q96RR4); details: CAMKK2, 1 uM
T5 construct: purchased Ambit KINOMEscan (DiscoverX)
Summary of the method: as §1

CDK2 = molecular target: T6, CDK2 (Homo sapiens, UniProt P24941); details: CDK2, 1 uM
T6 construct: purchased Ambit KINOMEscan (DiscoverX)
Summary of the method: as §1

CDK3 = molecular target: T7, CDK3 (Homo sapiens, UniProt Q00526); details: CDK3, 1 uM
T7 construct: purchased Ambit KINOMEscan (DiscoverX)
Summary of the method: as §1

CDKL3 = molecular target: T8, CDKL3 (Homo sapiens, UniProt Q8IVW4); details: CDKL3, 1 uM
T8 construct: purchased Ambit KINOMEscan (DiscoverX)
Summary of the method: as §1

EPHB1 = molecular target: T9, EPHB1 (Homo sapiens, UniProt P54762); details: EPHB1, 1 uM
T9 construct: purchased Ambit KINOMEscan (DiscoverX)
Summary of the method: as §1

ERK1 = molecular target: T10, ERK1 (Homo sapiens, UniProt P27361); details: ERK1, 1 uM
T10 construct: purchased Ambit KINOMEscan (DiscoverX)
T10 sequence (P27361 whole entry): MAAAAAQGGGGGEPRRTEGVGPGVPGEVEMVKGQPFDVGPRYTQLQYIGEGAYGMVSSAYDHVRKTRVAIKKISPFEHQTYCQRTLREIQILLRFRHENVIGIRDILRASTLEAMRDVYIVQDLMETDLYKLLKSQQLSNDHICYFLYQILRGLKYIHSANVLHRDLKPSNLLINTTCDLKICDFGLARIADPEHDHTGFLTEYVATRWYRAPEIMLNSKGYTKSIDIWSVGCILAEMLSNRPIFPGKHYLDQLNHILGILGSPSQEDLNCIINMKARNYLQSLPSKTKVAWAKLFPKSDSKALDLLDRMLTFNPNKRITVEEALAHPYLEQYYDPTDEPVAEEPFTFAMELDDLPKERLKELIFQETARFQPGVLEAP
Summary of the method: as §1

ERK8 = molecular target: T11, ERK8 (Homo sapiens, UniProt Q8TD08); details: ERK8, 1 uM
T11 construct: purchased Ambit KINOMEscan (DiscoverX)
Summary of the method: as §1

FGFR3 = molecular target: T12, FGFR3 (Homo sapiens, UniProt P22607); details: FGFR3, 1 uM
T12 construct: purchased Ambit KINOMEscan (DiscoverX)
Summary of the method: as §1

FGFR3(G697C) = molecular target: T13, FGFR3(G697C) (Homo sapiens, UniProt P22607, G697C); details: 1 uM
T13 construct: purchased Ambit KINOMEscan (DiscoverX)
Summary of the method: as §1

FGFR4 = molecular target: T14, FGFR4 (Homo sapiens, UniProt P22455); details: FGFR4, 1 uM
T14 construct: purchased Ambit KINOMEscan (DiscoverX)
Summary of the method: as §1

FLT3(D835H) = molecular target: T15, FLT3(D835H) (Homo sapiens, UniProt P36888, D835H); details: 1 uM
T15 construct: purchased Ambit KINOMEscan (DiscoverX)
Summary of the method: as §1

FLT4 = molecular target: T16, FLT4 (Homo sapiens, UniProt P35916); details: FLT4, 1 uM
T16 construct: purchased Ambit KINOMEscan (DiscoverX)
Summary of the method: as §1

GRK1 = molecular target: T17, GRK1 (Homo sapiens, UniProt Q15835); details: GRK1, 1 uM
T17 construct: purchased Ambit KINOMEscan (DiscoverX)
Summary of the method: as §1

IRAK1 = molecular target: T18, IRAK1 (Homo sapiens, UniProt P51617); details: IRAK1, 1 uM
T18 construct: purchased Ambit KINOMEscan (DiscoverX)
Summary of the method: as §1

[2] = molecular target: T19, JAK2(JH1domain-catalytic) (Homo sapiens, UniProt O60674); details: 1 uM
T19 construct: JAK2(JH1domain-catalytic); purchased Ambit KINOMEscan (DiscoverX)
Summary of the method: as §1

LATS1 = molecular target: T20, LATS1 (Homo sapiens, UniProt O95835); details: LATS1, 1 uM
T20 construct: purchased Ambit KINOMEscan (DiscoverX)
T20 sequence (O95835 whole entry): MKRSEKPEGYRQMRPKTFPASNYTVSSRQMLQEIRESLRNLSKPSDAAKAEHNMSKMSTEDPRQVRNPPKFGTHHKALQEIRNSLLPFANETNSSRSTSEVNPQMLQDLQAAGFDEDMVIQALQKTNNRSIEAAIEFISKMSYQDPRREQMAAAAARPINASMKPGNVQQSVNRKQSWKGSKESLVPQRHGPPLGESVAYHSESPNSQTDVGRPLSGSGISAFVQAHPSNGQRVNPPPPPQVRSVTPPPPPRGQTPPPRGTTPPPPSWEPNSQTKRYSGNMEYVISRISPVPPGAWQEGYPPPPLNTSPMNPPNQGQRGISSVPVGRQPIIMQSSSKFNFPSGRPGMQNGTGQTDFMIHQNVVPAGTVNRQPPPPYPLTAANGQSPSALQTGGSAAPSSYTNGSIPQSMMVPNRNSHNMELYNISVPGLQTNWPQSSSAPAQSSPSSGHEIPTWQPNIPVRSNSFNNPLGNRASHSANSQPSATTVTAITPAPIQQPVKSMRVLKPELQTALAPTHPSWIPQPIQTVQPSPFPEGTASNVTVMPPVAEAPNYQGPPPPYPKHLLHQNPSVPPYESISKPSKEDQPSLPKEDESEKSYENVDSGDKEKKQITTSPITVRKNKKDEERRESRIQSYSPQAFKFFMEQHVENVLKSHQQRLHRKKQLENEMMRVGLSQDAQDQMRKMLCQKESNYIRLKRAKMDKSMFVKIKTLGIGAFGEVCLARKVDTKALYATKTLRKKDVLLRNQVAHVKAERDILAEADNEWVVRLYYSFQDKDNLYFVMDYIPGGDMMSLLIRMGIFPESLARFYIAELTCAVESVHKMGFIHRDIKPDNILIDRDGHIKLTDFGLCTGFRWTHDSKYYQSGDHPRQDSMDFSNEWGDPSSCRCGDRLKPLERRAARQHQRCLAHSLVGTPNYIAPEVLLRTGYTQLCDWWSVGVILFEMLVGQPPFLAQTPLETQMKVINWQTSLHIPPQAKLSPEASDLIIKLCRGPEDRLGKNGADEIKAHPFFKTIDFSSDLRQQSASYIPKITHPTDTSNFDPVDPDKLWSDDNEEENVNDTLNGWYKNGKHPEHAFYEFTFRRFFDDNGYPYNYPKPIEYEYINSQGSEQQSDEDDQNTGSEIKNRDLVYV
Summary of the method: as §1

LCK = molecular target: T21, LCK (Homo sapiens, UniProt P06239); details: 1 uM
T21 construct: purchased Ambit KINOMEscan (DiscoverX)
Summary of the method: as §1

LIMK1 = molecular target: T22, LIMK1 (Homo sapiens, UniProt P53667); details: LIMK1, 1 uM
T22 construct: purchased Ambit KINOMEscan (DiscoverX)
T22 sequence (P53667 whole entry): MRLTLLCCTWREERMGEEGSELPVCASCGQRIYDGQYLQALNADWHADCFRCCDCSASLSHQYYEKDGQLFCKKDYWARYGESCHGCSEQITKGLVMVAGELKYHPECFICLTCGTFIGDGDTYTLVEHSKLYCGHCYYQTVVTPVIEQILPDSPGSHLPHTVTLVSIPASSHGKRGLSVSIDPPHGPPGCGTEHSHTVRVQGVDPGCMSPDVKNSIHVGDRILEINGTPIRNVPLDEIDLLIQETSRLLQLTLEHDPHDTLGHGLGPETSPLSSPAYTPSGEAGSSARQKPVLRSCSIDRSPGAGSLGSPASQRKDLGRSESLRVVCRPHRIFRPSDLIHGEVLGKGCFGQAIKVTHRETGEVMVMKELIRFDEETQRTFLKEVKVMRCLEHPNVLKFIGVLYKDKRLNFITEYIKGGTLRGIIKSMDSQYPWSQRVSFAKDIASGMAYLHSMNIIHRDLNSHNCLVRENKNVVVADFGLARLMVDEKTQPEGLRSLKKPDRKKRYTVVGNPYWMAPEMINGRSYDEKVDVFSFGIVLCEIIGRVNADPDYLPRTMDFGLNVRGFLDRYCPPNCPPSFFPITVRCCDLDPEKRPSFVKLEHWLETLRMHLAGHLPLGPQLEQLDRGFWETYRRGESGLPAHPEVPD
Summary of the method: as §1

MAP3K3 = molecular target: T23, MAP3K3 (Homo sapiens, UniProt Q99759); details: MAP3K3, 1 uM
T23 construct: purchased Ambit KINOMEscan (DiscoverX)
Summary of the method: as §1

MARK4 = molecular target: T24, MARK4 (Homo sapiens, UniProt Q96L34); details: MARK4, 1 uM
T24 construct: purchased Ambit KINOMEscan (DiscoverX)
Summary of the method: as §1

MLK3 = molecular target: T25, MLK3 (Homo sapiens, UniProt Q16584); details: MLK3, 1 uM
T25 construct: purchased Ambit KINOMEscan (DiscoverX)
T25 sequence (Q16584 whole entry): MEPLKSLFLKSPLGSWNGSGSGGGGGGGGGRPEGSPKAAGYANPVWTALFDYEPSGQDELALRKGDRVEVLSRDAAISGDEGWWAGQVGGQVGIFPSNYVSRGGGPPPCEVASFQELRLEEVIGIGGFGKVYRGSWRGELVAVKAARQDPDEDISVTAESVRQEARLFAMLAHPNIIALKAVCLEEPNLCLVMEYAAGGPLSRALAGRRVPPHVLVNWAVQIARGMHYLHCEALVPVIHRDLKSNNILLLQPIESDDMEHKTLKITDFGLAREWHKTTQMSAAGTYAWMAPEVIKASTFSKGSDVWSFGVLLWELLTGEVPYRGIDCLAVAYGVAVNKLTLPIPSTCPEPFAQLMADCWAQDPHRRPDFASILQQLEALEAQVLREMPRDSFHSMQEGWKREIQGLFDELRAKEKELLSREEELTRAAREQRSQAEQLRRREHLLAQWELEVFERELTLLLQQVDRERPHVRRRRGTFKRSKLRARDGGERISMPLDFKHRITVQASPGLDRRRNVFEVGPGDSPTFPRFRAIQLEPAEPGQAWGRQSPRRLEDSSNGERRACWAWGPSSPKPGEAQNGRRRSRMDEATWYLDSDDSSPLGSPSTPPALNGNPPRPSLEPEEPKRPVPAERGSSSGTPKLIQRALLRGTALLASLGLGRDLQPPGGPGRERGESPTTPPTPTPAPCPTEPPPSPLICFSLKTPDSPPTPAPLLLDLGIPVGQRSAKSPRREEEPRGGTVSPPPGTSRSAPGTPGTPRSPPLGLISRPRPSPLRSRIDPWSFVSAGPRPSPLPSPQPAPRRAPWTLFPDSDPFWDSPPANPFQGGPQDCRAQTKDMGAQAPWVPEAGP
Summary of the method: as §1

MST3 = molecular target: T26, MST3 (Homo sapiens, UniProt Q9Y6E0); details: MST3, 1 uM
T26 construct: purchased Ambit KINOMEscan (DiscoverX)
Summary of the method: as §1

MUSK = molecular target: T27, MUSK (Homo sapiens, UniProt O15146); details: 1 uM
T27 construct: purchased Ambit KINOMEscan (DiscoverX)
Summary of the method: as §1

NLK = molecular target: T28, NLK (Homo sapiens, UniProt Q9UBE8); details: 1 uM
T28 construct: purchased Ambit KINOMEscan (DiscoverX)
Summary of the method: as §1

PAK6 = molecular target: T29, PAK6 (Homo sapiens, UniProt Q9NQU5); details: PAK6, 1 uM
T29 construct: purchased Ambit KINOMEscan (DiscoverX)
T29 sequence (Q9NQU5 whole entry): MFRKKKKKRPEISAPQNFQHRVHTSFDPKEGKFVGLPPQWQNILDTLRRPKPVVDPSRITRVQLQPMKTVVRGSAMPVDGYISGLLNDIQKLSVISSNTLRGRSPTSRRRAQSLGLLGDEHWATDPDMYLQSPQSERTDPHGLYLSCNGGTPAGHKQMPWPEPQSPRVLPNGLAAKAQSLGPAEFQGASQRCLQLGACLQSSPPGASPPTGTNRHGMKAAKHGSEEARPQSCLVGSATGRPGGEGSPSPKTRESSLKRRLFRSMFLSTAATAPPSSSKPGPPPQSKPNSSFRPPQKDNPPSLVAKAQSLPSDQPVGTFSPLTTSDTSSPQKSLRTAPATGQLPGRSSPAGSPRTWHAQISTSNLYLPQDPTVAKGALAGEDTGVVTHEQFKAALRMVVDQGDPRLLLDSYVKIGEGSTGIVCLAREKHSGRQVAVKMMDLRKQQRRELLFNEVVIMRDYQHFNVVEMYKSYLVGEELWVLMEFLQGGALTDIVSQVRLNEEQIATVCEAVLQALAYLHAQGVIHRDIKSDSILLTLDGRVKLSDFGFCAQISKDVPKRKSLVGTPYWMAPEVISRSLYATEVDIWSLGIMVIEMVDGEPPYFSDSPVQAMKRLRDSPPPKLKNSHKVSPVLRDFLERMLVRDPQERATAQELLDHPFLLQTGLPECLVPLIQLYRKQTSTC
Summary of the method: as §1

PIK3CA(C420R) = molecular target: T30, PIK3CA(C420R) (Homo sapiens, UniProt P42336, C420R); details: 1 uM
T30 construct: purchased Ambit KINOMEscan (DiscoverX)
Summary of the method: as §1

PIK4CB = molecular target: T31, PIK4CB (Homo sapiens, UniProt Q9UBF8); details: 1 uM
T31 construct: purchased Ambit KINOMEscan (DiscoverX)
Summary of the method: as §1

PRKCQ = molecular target: T32, PRKCQ (Homo sapiens, UniProt Q04759); details: 1 uM
T32 construct: purchased Ambit KINOMEscan (DiscoverX)
T32 sequence (Q04759 whole entry): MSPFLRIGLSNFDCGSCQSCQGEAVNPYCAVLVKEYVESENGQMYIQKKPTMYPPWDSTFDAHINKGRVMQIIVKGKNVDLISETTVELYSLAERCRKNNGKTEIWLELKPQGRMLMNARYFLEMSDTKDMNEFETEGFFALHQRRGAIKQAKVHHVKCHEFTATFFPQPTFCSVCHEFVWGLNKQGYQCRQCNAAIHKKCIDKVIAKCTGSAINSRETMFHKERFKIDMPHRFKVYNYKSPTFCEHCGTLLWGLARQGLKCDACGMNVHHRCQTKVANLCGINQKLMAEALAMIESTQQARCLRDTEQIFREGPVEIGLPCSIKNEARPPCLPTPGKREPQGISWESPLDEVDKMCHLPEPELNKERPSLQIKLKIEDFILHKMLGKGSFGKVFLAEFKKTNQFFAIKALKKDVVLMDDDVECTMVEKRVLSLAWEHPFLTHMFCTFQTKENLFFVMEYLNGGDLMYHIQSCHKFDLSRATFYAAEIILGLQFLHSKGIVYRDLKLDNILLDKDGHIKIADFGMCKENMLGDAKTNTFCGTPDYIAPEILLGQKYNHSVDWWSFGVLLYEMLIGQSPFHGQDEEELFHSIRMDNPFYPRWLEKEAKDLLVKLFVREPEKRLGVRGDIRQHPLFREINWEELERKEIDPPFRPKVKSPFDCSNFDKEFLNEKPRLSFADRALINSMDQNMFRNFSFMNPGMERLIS
Summary of the method: as §1

PRKD2 = molecular target: T33, PRKD2 (Homo sapiens, UniProt Q9BZL6); details: PRKD2, 1 uM
T33 construct: purchased Ambit KINOMEscan (DiscoverX)
Summary of the method: as §1

QSK = molecular target: T34, QSK (Homo sapiens, UniProt Q9Y2K2); details: 1 uM
T34 construct: purchased Ambit KINOMEscan (DiscoverX)
Summary of the method: as §1

[3] = molecular target: T35, RPS6KA4(Kin.Dom.2-C-terminal) (Homo sapiens, UniProt O75676); details: 1 uM
T35 construct: RPS6KA4(Kin.Dom.2-C-terminal); purchased Ambit KINOMEscan (DiscoverX)
Summary of the method: as §1

[4] = molecular target: T36, RPS6KA5(Kin.Dom.1-N-terminal) (Homo sapiens, UniProt O75582); details: 1 uM
T36 construct: RPS6KA5(Kin.Dom.1-N-terminal); purchased Ambit KINOMEscan (DiscoverX)
Summary of the method: as §1

SRPK1 = molecular target: T37, SRPK1 (Homo sapiens, UniProt Q96SB4); details: SRPK1, 1 uM
T37 construct: purchased Ambit KINOMEscan (DiscoverX)
T37 sequence (Q96SB4 whole entry): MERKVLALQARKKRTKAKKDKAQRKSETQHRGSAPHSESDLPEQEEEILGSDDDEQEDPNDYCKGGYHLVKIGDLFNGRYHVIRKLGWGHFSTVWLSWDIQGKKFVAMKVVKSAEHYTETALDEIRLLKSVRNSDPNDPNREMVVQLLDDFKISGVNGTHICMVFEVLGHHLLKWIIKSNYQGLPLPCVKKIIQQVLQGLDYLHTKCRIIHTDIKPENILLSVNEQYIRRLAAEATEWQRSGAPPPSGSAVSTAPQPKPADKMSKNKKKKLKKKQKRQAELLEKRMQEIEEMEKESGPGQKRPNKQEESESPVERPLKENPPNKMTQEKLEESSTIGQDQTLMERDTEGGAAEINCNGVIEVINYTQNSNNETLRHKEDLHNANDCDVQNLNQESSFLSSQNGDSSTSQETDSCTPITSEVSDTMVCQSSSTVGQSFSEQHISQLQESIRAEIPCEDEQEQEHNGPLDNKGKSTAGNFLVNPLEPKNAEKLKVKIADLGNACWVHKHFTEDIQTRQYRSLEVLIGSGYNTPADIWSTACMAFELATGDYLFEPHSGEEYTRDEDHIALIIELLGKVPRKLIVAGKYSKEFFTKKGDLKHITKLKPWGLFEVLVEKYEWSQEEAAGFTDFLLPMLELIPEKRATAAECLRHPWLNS
Summary of the method: as §1

TLK1 = molecular target: T38, TLK1 (Homo sapiens, UniProt Q9UKI8); details: TLK1, 1 uM
T38 construct: purchased Ambit KINOMEscan (DiscoverX)
Summary of the method: as §1

| SMILES | % binding compared to no inhibitor control [1] | % binding compared to no inhibitor control (ACVRL1) | % binding compared to no inhibitor control (AMPK-alpha1) | % binding compared to no inhibitor control (ASK1) | % binding compared to no inhibitor control (CAMKK2) | % binding compared to no inhibitor control (CDK2) | % binding compared to no inhibitor control (CDK3) | % binding compared to no inhibitor control (CDKL3) | % binding compared to no inhibitor control (EPHB1) | % binding compared to no inhibitor control (ERK1) | % binding compared to no inhibitor control (ERK8) | % binding compared to no inhibitor control (FGFR3) | % binding compared to no inhibitor control (FGFR3(G697C)) | % binding compared to no inhibitor control (FGFR4) | % binding compared to no inhibitor control (FLT3(D835H)) | % binding compared to no inhibitor control (FLT4) | % binding compared to no inhibitor control (GRK1) | % binding compared to no inhibitor control (IRAK1) | % binding compared to no inhibitor control [2] | % binding compared to no inhibitor control (LATS1) | further results |
| --- | --- | --- | --- | --- | --- | --- | --- | --- | --- | --- | --- | --- | --- | --- | --- | --- | --- | --- | --- | --- | --- |
| COc1ccc(-c2cc3nccn3c(Nc3ncccc3C(N)=O)n2)cc1OC.Cl.Cl [BAY61-3606, 2-[7-(3,4-dimethoxyphenyl)-imidazo [1,2-c]pyrimidin-5-ylamino] nicotinamide dihydrochloride, reference compound] | 85% | 100% | 92% | 100% | 51% | 86% | 89% | 100% | 90% | 100% | 92% | 100% | 83% | 100% | 7.9% | 100% | 65% | 8% | 90% | 100% | % binding compared to no inhibitor control (LCK): 87%; % binding compared to no inhibitor control (LIMK1): 100%; % binding compared to no inhibitor control (MAP3K3): 97%; % binding compared to no inhibitor control (MARK4): 88%; % binding compared to no inhibitor control (MLK3): 77%; % binding compared to no inhibitor control (MST3): 56%; % binding compared to no inhibitor control (MUSK): 76%; % binding compared to no inhibitor control (NLK): 88%; % binding compared to no inhibitor control (PAK6): 65%; % binding compared to no inhibitor control (PIK3CA(C420R)): 100%; % binding compared to no inhibitor control (PIK4CB): 24%; % binding compared to no inhibitor control (PRKCQ): 88%; % binding compared to no inhibitor control (PRKD2): 53%; % binding compared to no inhibitor control (QSK): 100%; % binding compared to no inhibitor control [3]: 60%; % binding compared to no inhibitor control [4]: 90%; % binding compared to no inhibitor control (SRPK1): 88%; % binding compared to no inhibitor control (TLK1): 89% |
| COc1ccccc1Nc1nc(-c2ccc(OC)c(OC)c2)cc2nccn12 [BAY derivative 6] | 58% | 100% | 100% | 100% | 100% | 100% | 94% | 100% | 100% | 100% | 98% | 100% | 70% | 100% | 42% | 86% | 100% | 92% | 13% | 100% | % binding compared to no inhibitor control (LCK): 41%; % binding compared to no inhibitor control (LIMK1): 91%; % binding compared to no inhibitor control (MAP3K3): 85%; % binding compared to no inhibitor control (MARK4): 75%; % binding compared to no inhibitor control (MLK3): 100%; % binding compared to no inhibitor control (MST3): 100%; % binding compared to no inhibitor control (MUSK): 100%; % binding compared to no inhibitor control (NLK): 82%; % binding compared to no inhibitor control (PAK6): 99%; % binding compared to no inhibitor control (PIK3CA(C420R)): 100%; % binding compared to no inhibitor control (PIK4CB): 100%; % binding compared to no inhibitor control (PRKCQ): 100%; % binding compared to no inhibitor control (PRKD2): 100%; % binding compared to no inhibitor control (QSK): 87%; % binding compared to no inhibitor control [3]: 86%; % binding compared to no inhibitor control [4]: 89%; % binding compared to no inhibitor control (SRPK1): 75%; % binding compared to no inhibitor control (TLK1): 57% |

— publication PMC3399817 (PLoS ONE, 2012)
